Measured values published in patent publication US10239881B2, “RIPK2 inhibitors and method of treating cancer with same” (University Health Network, priority 2014, dated 2019).

How the values were obtained:
human RIPK2 kinase = human RIPK2 kinase (Homo sapiens (Human), UniProt O43353); experiment: RIPK2 inhibition assay (indirect ELISA); assay type: biochemical; details: His-RIPK2 0.6 nM, 6 μM ATP; read-out: RIPK2 IC50 range
Description: Active RIPK2 was purchased from Life Technologies as His-tagged of catalityc domain (amin acids 1-299) of human RIPK2 kinase expressed in insect cells. Amino terminal 6 histidine, sumo tagged human TTK (residues 1-275) was expressed in E. coli, and purified to >95% homogeneity by Ni^2+ agarose, gel filtration, and ion exchange chromatography.
RIPK2 activity was measured using an indirect ELISA detection system. His—RIPK2 (0.6 nM) was incubated in the presence of 6 μM ATP (Sigma cat # A7699), 20 mM Hepes, pH 7.5, 1 mM EGTA, 2.5 mM MgCl2, 2.5 mM MnCl2 and 0.01% Triton X-100 in a 96 well microtitre plate pre-coated with amino terminal 6 histidine, sumo tagged TTK (amino acid residues 1-275). The reaction was allowed to proceed for 30 minutes, followed by 5 washes of the plate with Wash Buffer (phosphate buffered saline supplemented with 0.2% Tween 20), and incubation for 30 minutes with a 1:3000 dilution of primary antibody (Cell Signaling cat #9381). The plate was washed 5 times with Wash Buffer, incubated for 30 minutes in the presence of secondary antibody coupled to horse radish peroxidase (BioRad cat #1721019, 1:3000 concentration), washed an additional 5 times with Wash Buffer, and incubated in the presence of TMB substrate (Sigma cat # T0440). The colorimetric reaction was allowed to continue for 5 minutes, followed by addition of stop solution (0.5 N H2SO4), and quantified by detection at 450 nm with either a monoChromatic or filter based plate reader (Molecular Devices M5 or Beckman DTX880, respectively).
Compound inhibition was determined at either a fixed concentration (10 μM) or at a variable inhibitor concentration (typically 50 μM to 0.1 μM in a 10 point dose response titration). Compounds were pre-incubated in the presence of enzyme for 15 minutes prior to addition of ATP and the activity remaining quantified using the above described activity assay. The % Inhibition of a compound was determined using the following formula; % Inhibition=100×(1−(experimental value−background value)/(high activity control−background value)). The IC50 value was determined using a non-linear 4 point logistic curve fit (XLfit4, IDBS) with the formula; (A+(B/(1+((x/C)^D)))), where A=background value, B=range, C=inflection point, D=curve fit parameter.

[1] = tested on: HCT116 colon cancer cells; experiment: Sulforhodamine B cell growth inhibition assay; assay type: cell-based; details: Homo sapiens, HCT-116, 120 h; 5 days, SRB; read-out: Colon GI50 range HCT116
Description: (§1) Breast cancer cells (MDA-MB-231 and MDA-MB-468), colon cancer cells (HCT116 and HT-29) and ovarian cancer cells (SKOV-3 and OVCAR-3) were seeded (1000 to 4000 in 80 μL per well depending on the cell growth rate) into 96 well plates 24 hours before compound overlay. Compounds were prepared as 10 mM stock solutions in 100% DMSO which were diluted with DMEM (Dulbecco's Modified Eagle's Medium) cell growth Medium (Invitrogen, Burlington, ON, Canada) containing 10% FBS (Fetal Bovine Serum) to concentrations ranging from 50 nM to 250 μM. Aliquots (20 μL) from each concentration were overlaid to 80 μL of the pre-seeded cells in the 96 well plates to make final concentrations of 10 nM to 50 μM. The cells were cultured for 5 days before the Sulforhodamine B assay (SRB) was performed to determine the compound's cell growth inhibition activity.
(§2) The cells are fixed in situ by gently aspirating off the culture media and adding 50 μL ice cold 10% trichloroacetic acid per well and incubate at 4° C. for 30-60 min. The plates are washed with H2O five times and allowed to air dry for 5 min. Addition of 50 μL 0.4% (w/v) SRB solution in 1% (v/v) acetic acid to each well and incubation for 30 min at rt completes the staining reaction. Following staining, plates are washed four times with 1% acetic acid to remove unbound dye and then allowed to air dry for 5 min. The stain is solubilized with 100 μL of 10 mM Tris pH 10.5 per well. Absorbance is read at 570 nm. The percentage (%) of relative growth inhibition was calculated by comparing to DMSO treated only cells (100%). GI50's were determined for compounds with cytotoxic activity. The GI50 was calculated using GraphPad PRISM software (GraphPad Software, Inc., San Diego, Calif., USA). GI50 (growth inhibition) is the compound concentration that causes 50% inhibition of cell growth.
(§3) In Table 2 lists GI50 value ranges for compound examples against breast cancer cell lines (MDA-MB-231, MDA-MB-468), colon cancer cell lines (HCT116, HT-29) and ovarian cancer cell lines (OVCAR-3, SKOV-3) are given. […] The GI50 ranges are indicated as “A,” “B,” and “C,” for values less than or equal to 1 μM; those greater than 1 μM and less than or equal to 10 μM; and those greater than 10 μM, respectively.

HT-29 colon cancer cells = experiment: Sulforhodamine B cell growth inhibition assay; assay type: cell-based; details: Homo sapiens, HT-29, 120 h; 5 days, SRB; read-out: Colon GI50 range HT29
Description: as §1, §2, §3

[2] = tested on: MDA-MB-231 breast cancer cells; experiment: Sulforhodamine B cell growth inhibition assay; assay type: cell-based; details: Homo sapiens, MDA-MB-231, 120 h; 5 days, SRB; read-out: Breast GI50 range MDA-MB-231
Description: as §1, §2, §3

[3] = tested on: MDA-MB-468 breast cancer cells; experiment: Sulforhodamine B cell growth inhibition assay; assay type: cell-based; details: Homo sapiens, MDA-MB-468, 120 h; 5 days, SRB; read-out: Breast GI50 range MDA-MB-468
Description: as §1, §2, §3

[4] = tested on: OVCAR-3 ovarian cancer cells; experiment: Sulforhodamine B cell growth inhibition assay; assay type: cell-based; details: Homo sapiens, OVCAR-3, 120 h; 5 days, SRB; read-out: Ovarian GI50 range OVCAR-3
Description: as §1, §2, §3

[5] = tested on: SKOV-3 ovarian cancer cells; experiment: Sulforhodamine B cell growth inhibition assay; assay type: cell-based; details: Homo sapiens, SK-OV-3, 120 h; 5 days, SRB; read-out: Ovarian GI50 range SKOV-3
Description: as §1, §2, §3

Chain of human RIPK2 kinase (O43353 1-299): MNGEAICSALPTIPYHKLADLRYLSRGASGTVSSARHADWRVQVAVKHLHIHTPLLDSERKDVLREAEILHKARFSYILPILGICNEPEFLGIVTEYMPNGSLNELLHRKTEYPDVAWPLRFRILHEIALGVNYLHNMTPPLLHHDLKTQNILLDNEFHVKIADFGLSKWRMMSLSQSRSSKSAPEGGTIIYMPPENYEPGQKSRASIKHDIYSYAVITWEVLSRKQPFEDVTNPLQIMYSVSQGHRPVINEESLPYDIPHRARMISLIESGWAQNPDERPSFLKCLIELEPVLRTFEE

With `Cc1ccccc1-c1cc2nc(NCC3(N4CCOCC4)CCCC3)ncc2[nH]1` [Example A26, N-((1-morpholino-cyclopentyl)methyl)-6-(o-tolyl)-5H-pyrrolo[3,2-d]pyrimidin-2-amine] the IC50 (human RIPK2 kinase) was greater than 500 nM.

Compound `Fc1ccccc1-c1cc2nc(Nc3cccc(N4CCOCC4)c3)ncc2[nH]1` [Example A13, 6-(2-fluorophenyl)-N-(3-morpholino-phenyl)-5H-pyrrolo[3,2-d]pyrimidin-2-amine] has an IC50 (human RIPK2 kinase) of 100 to 500 nM, a GI50 [1] of no more than 1000 nM and a GI50 (HT-29 colon cancer cells) of no more than 1000 nM. For the same compound, the GI50 [2] was no more than 1000 nM, the GI50 [3] was no more than 1000 nM and the GI50 [4] was no more than 1000 nM. The GI50 [5] was no more than 1000 nM.

Compound `Cc1ccccc1-c1cc2nc(Nc3ccc(N4CCN(C)CC4)cc3)ncc2[nH]1` [Example A17, N-(4-(4-methylpiperazin-1-yl)phenyl)-6-(o-tolyl)-5H-pyrrolo[3,2-d]pyrimidin-2-amine] has an IC50 (human RIPK2 kinase) of no more than 100 nM.

`Cc1ccccc1-c1cc2nc(Nc3ccc(CN4CCN(C)CC4)cc3)ncc2[nH]1` [Example A18, N-(4-((4-methylpiperazin-1-yl)methyl)phenyl)-6-(o-tolyl)-5H-pyrrolo[3,2-d] pyrimidin-2-amine] gave an IC50 (human RIPK2 kinase) of no more than 100 nM.

For `Cc1ccccc1-c1cc2nc(N[C@H]3CC[C@@H](O)CC3)ncc2[nH]1` [Example A21, (1r,4)-4-((6-(o-tolyl)-5H-pyrrolo[3,2-d]pyrimidin-2-yl)amino) cyclohexanol], the IC50 (human RIPK2 kinase) was 100 to 500 nM.

Work on `c1ccc(Nc2ncc3[nH]c(-c4ccccc4)cc3n2)cc1` [Example A1, N,6-diphenyl-5H-pyrrolo[3,2-d]pyrimidin-2-amine] yielded an IC50 (human RIPK2 kinase) greater than 500 nM.

`Cc1nc(Nc2ncc3[nH]c(-c4ccccc4C)cc3n2)cc(N2CCN(CCO)CC2)n1` [Example A5, 2-(4-(2-methyl-6-((6-(o-tolyl)-5H-pyrrolo[3,2-d]pyrimidin-2-yl)amino)pyrimidin-4-yl)piperazin-1-yl)ethanol] was tested, and the IC50 (human RIPK2 kinase) was greater than 500 nM.

`CN1CCN(c2cccc(Nc3ncc4[nH]c(C5CCCC5)cc4n3)c2)CC1` [Example A10, 6-cyclopentyl-N-(3-(4-methylpiperazin-1-yl)phenyl)-5H-pyrrolo[3,2-d]pyrimidin-2-amine] showed an IC50 (human RIPK2 kinase) greater than 500 nM.

For `Cc1ccccc1-c1cc2nc(N[C@H]3CC[C@@H](O)CC3)ncc2[nH]1` [Example A22, (1s,4s)-4-((6-(o-tolyl)-5H-pyrrolo[3,2-d]pyrimidin-2-yl)amino) cyclohexanol], the IC50 (human RIPK2 kinase) was greater than 500 nM.

`OCCN1CCN(c2cccc(Nc3ncc4[nH]c(-c5ccccc5Cl)cc4n3)c2)CC1` [Example A16, 2-(4-(3-((6-(2-chlorophenyl)-5H-pyrrolo[3,2-d]pyrimidin-2-yl)amino)phenyl)piperazin-1-yl) ethanol] gave an IC50 (human RIPK2 kinase) of no more than 100 nM.

`Cc1ccccc1-c1cc2nc(Nc3ccc(CN4CCOCC4)cc3)ncc2[nH]1` [Example A15, N-(4-(morpholino-methyl)phenyl)-6-(o-tolyl)-5H-pyrrolo[3,2-d] pyrimidin-2-amine] gave an IC50 (human RIPK2 kinase) of no more than 100 nM.

`COc1ccccc1-c1cc2nc(Nc3cccc(N4CCOCC4)c3)ncc2[nH]1` [Example A25, 6-(2-methoxy-phenyl)-N-(3-morpholino-phenyl)-5H-pyrrolo[3,2-d] pyrimidin-2-amine] was tested, and the IC50 (human RIPK2 kinase) was 100 to 500 nM.

In the case of `Cc1ccccc1-c1cc2nc(Nc3cccc(CN4CCN(C)CC4)c3)ncc2[nH]1` [Example A9, N-(3-((4-methylpiperazin-1-yl)methyl)phenyl)-6-(o-tolyl)-5H-pyrrolo[3,2-d] pyrimidin-2-amine], the IC50 (human RIPK2 kinase) is reported as no more than 100 nM, the GI50 [1] is reported as 1000 to 10000 nM and the GI50 (HT-29 colon cancer cells) is reported as no more than 1000 nM. It also gave a GI50 [2] greater than 10000 nM, a GI50 [4] of no more than 1000 nM and a GI50 [5] of no more than 1000 nM.

In the case of `Clc1ccccc1-c1cc2nc(Nc3cccc(N4CCOCC4)c3)ncc2[nH]1` [Example A20, 6-(2-chloro-phenyl)-N-(3-morpholino-phenyl)-5H-pyrrolo[3,2-d]pyrimidin-2-amine], the IC50 (human RIPK2 kinase) is reported as no more than 100 nM.

Work on `Cc1ccccc1-c1cc2nc(NCCCN3CCOCC3)ncc2[nH]1` [Example A19, N-(3-morpholinopropyl)-6-(o-tolyl)-5H-pyrrolo[3,2-d]pyrimidin-2-amine] yielded an IC50 (human RIPK2 kinase) greater than 500 nM.

In the case of `Cc1ccccc1-c1cc2nc(Nc3cccc(CN4CCOCC4)c3)ncc2[nH]1` [Example A7, N-(3-(morpholino-methyl)phenyl)-6-(o-tolyl)-5H-pyrrolo[3,2-d] pyrimidin-2-amine], the IC50 (human RIPK2 kinase) is reported as no more than 100 nM, the GI50 [1] is reported as 1000 to 10000 nM and the GI50 (HT-29 colon cancer cells) is reported as 1000 to 10000 nM. The GI50 [2] was 1000 to 10000 nM, the GI50 [4] was 1000 to 10000 nM and the GI50 [5] was 1000 to 10000 nM.

Compound `Cc1ccccc1-c1cc2nc(NC3CCOCC3)ncc2[nH]1` [Example A23, N-(tetrahydro-2H-pyran-4-yl)-6-(o-tolyl)-5H-pyrrolo[3,2-d]pyrimidin-2-amine] has an IC50 (human RIPK2 kinase) greater than 500 nM.

In the case of `Cc1ccccc1-c1cc2nc(NCC3CCOCC3)ncc2[nH]1` [Example A24, N-((tetrahydro-2H-pyran-4-yl)methyl)-6-(o-tolyl)-5H-pyrrolo[3,2-d]pyrimidin-2-amine], the IC50 (human RIPK2 kinase) is reported as 100 to 500 nM.

Work on `CN1CCN(c2cccc(Nc3ncc4[nH]c(-c5ccsc5)cc4n3)c2)CC1` [Example A11, N-(3-(4-methylpiperazin-1-yl)phenyl)-6-(thiophen-3-yl)-5H-pyrrolo[3,2-d]pyrimidin-2-amine] yielded an IC50 (human RIPK2 kinase) of no more than 100 nM.

`c1cc(Nc2ncc3[nH]c(C4CCOCC4)cc3n2)cc(N2CCOCC2)c1` [Example A14, N-(3-morpholino-phenyl)-6-(tetrahydro-2H-pyran-4-yl)-5H-pyrrolo[3,2-d] pyrimidin-2-amine] showed an IC50 (human RIPK2 kinase) greater than 500 nM.

Work on `Cc1cccc(C)c1-c1cc2nc(Nc3cccc(N4CCN(C)CC4)c3)ncc2[nH]1` [Example A6, 6-(2,6-dimethylphenyl)-N-(3-(4-methylpiperazin-1-yl)phenyl)-5H-pyrrolo[3,2-d]pyrimidin-2-amine] yielded an IC50 (human RIPK2 kinase) of no more than 100 nM, a GI50 [1] of 1000 to 10000 nM and a GI50 (HT-29 colon cancer cells) of no more than 1000 nM. For the same compound, the GI50 [2] was 1000 to 10000 nM, the GI50 [4] was no more than 1000 nM and the GI50 [5] was no more than 1000 nM.

`Cc1ccccc1-c1cc2nc(Nc3ccc(N4CCOCC4)cc3)ncc2[nH]1` [Example A8, N-(4-morpholino-phenyl)-6-(o-tolyl)-5H-pyrrolo[3,2-d]pyrimidin-2-amine] gave an IC50 (human RIPK2 kinase) of no more than 100 nM, a GI50 [1] greater than 10000 nM and a GI50 (HT-29 colon cancer cells) greater than 10000 nM. It also gave a GI50 [2] greater than 10000 nM, a GI50 [4] greater than 10000 nM and a GI50 [5] greater than 10000 nM.
